Measured values published in PMC11858513, “Antibiofilm Activities of Tritrpticin Analogs Against Pathogenic Pseudomonas aeruginosa PA01 Strains” (Molecules, 2025).
Converted amounts (≈) assume the structure as drawn. Read-outs that look alike come from different tables or passages of the source. Residues, ends and D or L forms follow the SMILES beside them.

Legend:
P. aeruginosa PAO1 GFP [1] = assay: MIC against planktonic cells, absorbance at 600 nm; type: cell-based, Pseudomonas aeruginosa; conditions: Table 2, BM2 medium, absorbance 600 nm, mean of three biological replicates
How it was run: (§1)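 GFP-expressing P. aeruginosa PAO1 exposed to peptides; planktonic MIC read by absorbance at 600 nm, while MBIC (prevention) and MBEC (eradication) used biofilm GFP fluorescence at 480/530 nm. Triplicate biological replicates averaged, with untreated growth and medium-only controls on each plate.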

P. aeruginosa PAO1 GFP [2] = assay: MBIC, prevention of biofilm formation, GFP fluorescence method; type: cell-based, Pseudomonas aeruginosa; conditions: Table 2, BM2 medium, mean of three biological replicates
How it was run: as §1

P. aeruginosa PAO1 GFP [3] = assay: MBEC, biofilm eradication, GFP fluorescence method; type: cell-based, Pseudomonas aeruginosa; conditions: Table 2, BM2 medium, mean of three biological replicates
How it was run: as §1

S. aureus GFP [4] = assay: MIC against planktonic cells, absorbance at 600 nm; type: cell-based, Staphylococcus aureus; conditions: Table 4; Sa GFP, 10% TSB and 0.1% glucose; absorbance 600 nm; mean of three biological replicates
How it was run: (§2)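 GFP-expressing S. aureus, triplicate biological replicates. MIC on planktonic cells by absorbance at 600 nm. MBIC and MBEC from biofilm GFP fluorescence (480/530 nm), with untreated growth and media-only controls.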

S. aureus GFP [5] = assay: MBIC, GFP fluorescence method; type: cell-based, Staphylococcus aureus; conditions: Table 4, Sa GFP, 10% TSB and 0.1% glucose, mean of three biological replicates
How it was run: as §2

S. aureus GFP [6] = assay: MBEC, GFP fluorescence method; type: cell-based, Staphylococcus aureus; conditions: Table 4, Sa GFP, 10% TSB and 0.1% glucose, mean of three biological replicates
How it was run: as §2

S. aureus GFP [7] = type: cell-based, Staphylococcus aureus; conditions: Table 4; Sa GFP; lowest concentration of peptide with no bacterial growth seen on the spot agar plate
P. aeruginosa PAO1 [8] = type: cell-based, Pseudomonas aeruginosa; conditions: Table 5; regular PAO1 (no GFP), 1x BM2; absorbance 600 nm; mean of three biological replicates
How it was run: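 PAO1 tested with peptides in 1× BM2; planktonic growth read at 600 nm, biofilm quantified by 0.1% crystal violet staining (15 min), ethanol release and 595 nm reading, using a Calgary biofilm device. Values are means of three replicates with untreated-growth and medium-only controls.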

P. aeruginosa PAO1 [9] = type: cell-based
How it was run: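 Peptides tested against P. aeruginosa PAO1 in 1× BM2 medium; planktonic growth read at 600 nm for MIC. Biofilm inhibition and eradication quantified by 0.1% crystal violet staining (15 min), ethanol release, absorbance at 595 nm, plus GFP-fluorescence and Calgary peg-device methods; triplicate means.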

P. aeruginosa PAO1 [10] = type: cell-based, Pseudomonas aeruginosa; conditions: Table 5; PAO1, 1x BM2; biofilms on pegs, cells plated and counted; three biological replicates
How it was run: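 Biofilm eradication (MBEC) for peptides against P. aeruginosa PAO1 in 1× BM2 medium, from counts of biofilm cells; GFP-producing strain fluorescence, crystal violet staining and Calgary peg device also used. Three biological replicates, mean ± SD, with untreated growth and medium-only controls.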

[11] = Table 5, PAO1, 1x BM2, crystal violet at 595 nm, mean of three biological replicates
[12] = Table 5, minimum biofilm reduction concentration, PAO1, 1x BM2, crystal violet at 595 nm, mean of three biological replicates

Row | Compound | MIC at 600 nm LD50 (P. aeruginosa PAO1 GFP [1]) | MIC at 600 nm LD90 (P. aeruginosa PAO1 GFP [1]) | MBIC at 488 and 530 nm LD50 (P. aeruginosa PAO1 GFP [2]) | MBIC at 488 and 530 nm LD90 (P. aeruginosa PAO1 GFP [2]) | MBEC at 488 and 530 nm LD50 (P. aeruginosa PAO1 GFP [3]) | MBEC at 488 and 530 nm LD90 (P. aeruginosa PAO1 GFP [3]) | MIC at 600 nm LD50 (S. aureus GFP [4]) | MIC at 600 nm LD90 (S. aureus GFP [4]) | MBIC at 488 and 530 nm LD50 (S. aureus GFP [5]) | MBIC at 488 and 530 nm LD90 (S. aureus GFP [5]) | MBEC at 488 and 530 nm LD50 (S. aureus GFP [6]) | MBEC at 488 and 530 nm LD90 (S. aureus GFP [6]) | MBC Agar Plate (S. aureus GFP [7]) | MIC at 600 nm LD50 (P. aeruginosa PAO1 [8]) | MIC at 600 nm LD90 (P. aeruginosa PAO1 [8]) | MBIC (CV at 595 nm) LD50 (P. aeruginosa PAO1 [9]; [11]) | MBIC (CV at 595 nm) LD90 (P. aeruginosa PAO1 [9]; [11]) | MBRC (CV at 595 nm) LD90 (P. aeruginosa PAO1 [9]; [12]) | MBEC from Calgary Biofilm Device (CBD) LD50 (P. aeruginosa PAO1 [10]) | MBEC from Calgary Biofilm Device (CBD) LD90 (P. aeruginosa PAO1 [10]) | also measured
1 | CC(C)C[C@H](NC(=O)[C@H](Cc1ccccc1)NC(=O)[C@H](C)NC(=O)[C@H](Cc1c[nH]c2ccccc12)NC(=O)[C@H](Cc1c[nH]c2ccccc12)NC(=O)[C@H](Cc1c[nH]c2ccccc12)NC(=O)[C@H](C)NC(=O)[C@H](Cc1ccccc1)NC(=O)[C@H](CCCCN)NC(=O)[C@H](CCCCN)NC(=O)[C@@H](N)C(C)C)C(=O)N[C@@H](CCCCN)C(=O)N[C@@H](CCCCN)C(N)=O [Tritrp-P59A-Lys] (H-VKKFAWWWAFLKK-NH2) | 4 µM (≈ 6.95 µg/mL) | 4 µM (≈ 6.95 µg/mL) | 4 µmol/L | 4 µmol/L | 32 µmol/L | 128 µmol/L | 2 µM (≈ 3.47 µg/mL) | 2 µM (≈ 3.47 µg/mL) | 2 µmol/L | 2 µmol/L | 2 µmol/L | 4 µmol/L | 4 µM (≈ 6.95 µg/mL) | 4 µM (≈ 6.95 µg/mL) | 8 µM (≈ 13.9 µg/mL) | 4 µmol/L | 8 µmol/L | 64 µmol/L | 64 µmol/L | 128 µmol/L | MBRC (CV at 595 nm) LD50 (P. aeruginosa PAO1 [9]; PAO1): 64 µmol/L
2 | CC(C)C[C@H](NC(=O)[C@H](Cc1ccccc1)NC(=O)[C@@H]1CCCN1C(=O)[C@H](Cc1ccccc1)NC(=O)[C@H](Cc1ccccc1)NC(=O)[C@H](Cc1ccccc1)NC(=O)[C@@H]1CCCN1C(=O)[C@H](Cc1ccccc1)NC(=O)[C@H](CCCNC(=N)N)NC(=O)[C@H](CCCNC(=N)N)NC(=O)[C@@H](N)C(C)C)C(=O)N[C@@H](CCCNC(=N)N)C(=O)N[C@@H](CCCNC(=N)N)C(N)=O [Tritrp-W678F] (H-VRRFPFFFPFLRR-NH2) | 32 µM (≈ 57.1 µg/mL) | >64 µM | 32 µmol/L | 64 µmol/L | 32 µmol/L | 64 µmol/L | 0.5 µM (≈ 0.892 µg/mL) | 0.5 µM (≈ 0.892 µg/mL) | 1 µmol/L | 1 µmol/L | 2 µmol/L | 4 µmol/L | 8 µM (≈ 14.3 µg/mL) | 32 µM (≈ 57.1 µg/mL) | >64 µM | 64 µmol/L | >64 µmol/L | >128 µmol/L | 128 µmol/L | 128 µmol/L | MBRC (CV at 595 nm) LD50 (P. aeruginosa PAO1 [9]; PAO1): 128 µmol/L
3 | CC(C)C[C@H](NC(=O)[C@H](Cc1ccccc1)NC(=O)[C@@H]1CCCN1C(=O)[C@H](Cc1ccc(O)cc1)NC(=O)[C@H](Cc1ccc(O)cc1)NC(=O)[C@H](Cc1ccc(O)cc1)NC(=O)[C@@H]1CCCN1C(=O)[C@H](Cc1ccccc1)NC(=O)[C@H](CCCNC(=N)N)NC(=O)[C@H](CCCNC(=N)N)NC(=O)[C@@H](N)C(C)C)C(=O)N[C@@H](CCCNC(=N)N)C(=O)N[C@@H](CCCNC(=N)N)C(N)=O [Tritrp-W678Y] (H-VRRFPYYYPFLRR-NH2) | >64 µM | >64 µM | >64 µmol/L | >64 µmol/L | >128 µmol/L | >128 µmol/L | 1 µM (≈ 1.83 µg/mL) | 2 µM (≈ 3.66 µg/mL) | 1 µmol/L | 2 µmol/L | 2 µmol/L | 8 µmol/L | 16 µM (≈ 29.3 µg/mL) | >64 µM | >64 µM | >64 µmol/L | >64 µmol/L | >128 µmol/L | >128 µmol/L | >128 µmol/L | MBRC (CV at 595 nm) LD50 (P. aeruginosa PAO1 [9]; PAO1): 128 µmol/L
4 | VRRFP(hW)(hW)(hW)PFLRR-NH2 [Tritrp-W678hW, Tritrp analog with hydroxy-Trp in place of the three Trp] | 32 µM | 64 µM | 16 µmol/L | 64 µmol/L | >128 µmol/L | >128 µmol/L | 2 µM | 4 µM | 2 µmol/L | 4 µmol/L | 4 µmol/L | 8 µmol/L | 16 µM | >64 µM | >64 µM | 32 µmol/L | >64 µmol/L | >128 µmol/L | >128 µmol/L | >128 µmol/L | MBRC (CV at 595 nm) LD50 (P. aeruginosa PAO1 [9]; [12]): >128 µmol/L
